Assay results: US20260191843A1, “METHODS AND MATERIALS FOR TREATING BURNS” (The Penn State Research Foundation, priority 2022, published 2026)
Entries after “also recorded” stand apart in the source; their conditions may differ.

How the values were obtained:
[1] = test system: deep-partial thickness burn wound on the mouse dorsum; assay: Morphometric burn wound healing assessment at day 26 (H&E and Masson's trichrome staining); format: in vivo, wild-type C57BL/6 mouse
Description: Place the 8-10-week-old wild-type C57BL/6 mouse on its side on a sterile paper sheet. Anesthesia was achieved and maintained with isoflurane utilizing an induced with an intraperitoneal injection of ketamine (60 mg/kg) and xylazine (4 mg/kg). An adequate depth of anesthesia was ensured via lack of a withdrawal reflex when a toe pinch was performed. The depth of anesthesia was monitored as well as respiration and mucous membrane color (pink: normal, pale: blood loss, blue: cyanosis). The surgeon(s) used sterile gloves, mask and a clean lab coat. Sterile surgical instruments (autoclaved) were used during all survival surgeries. The skin was prepared for creation of wound on the dorsal and side skin (from neck to tail) by shaving with a mechanical shaver and then applying a hair removal cream on the skin for 3-5 minutes. Hair was removed completely by gently wiping the skin with cotton balls soaked in warm water. Skin disinfection around the incision site was done using 70% ethanol and betadine for 3 times. Then, the dorsal skin was folded and raised cranially and caudally at the midline using index fingers and thumbs, and the animal was placed in a lateral position. The burn wound was created by contacting a 10 mm diameter brass heating device maintained at 100° C. to the mouse dorsum at a constant pressure. The device remained in contact with the skin for 4 seconds in order to create a deep-partial thickness burn. After burn wound creation, the wound site was photographed, the wound area was circled using permanent pen marker, and the wound surface was covered with a TEGADERM™ (3M) sterile transparent dressing. After surgery, mice were given SR Buprenorphine (0.05 mg/kg) for post-operative analgesia. Then, mice were placed in a clean cage on the heating pad for 30 minutes to help the recovery process. Immediately after the recovery, mice were randomly grouped and treated with either with 4-AP (systemic, ip) or saline (control). […]

[2] = test system: deep-partial thickness burn wound on the mouse dorsum; assay: Burn wound healing in mice: wound area and percentage of wound closure; format: in vivo, wild-type C57BL/6 mouse
Description: Place the 8-10-week-old wild-type C57BL/6 mouse on its side on a sterile paper sheet. Anesthesia was achieved and maintained with isoflurane utilizing an induced with an intraperitoneal injection of ketamine (60 mg/kg) and xylazine (4 mg/kg). An adequate depth of anesthesia was ensured via lack of a withdrawal reflex when a toe pinch was performed. The depth of anesthesia was monitored as well as respiration and mucous membrane color (pink: normal, pale: blood loss, blue: cyanosis). The surgeon(s) used sterile gloves, mask and a clean lab coat. Sterile surgical instruments (autoclaved) were used during all survival surgeries. The skin was prepared for creation of wound on the dorsal and side skin (from neck to tail) by shaving with a mechanical shaver and then applying a hair removal cream on the skin for 3-5 minutes. Hair was removed completely by gently wiping the skin with cotton balls soaked in warm water. Skin disinfection around the incision site was done using 70% ethanol and betadine for 3 times. Then, the dorsal skin was folded and raised cranially and caudally at the midline using index fingers and thumbs, and the animal was placed in a lateral position. The burn wound was created by contacting a 10 mm diameter brass heating device maintained at 100° C. to the mouse dorsum at a constant pressure. The device remained in contact with the skin for 4 seconds in order to create a deep-partial thickness burn. After burn wound creation, the wound site was photographed, the wound area was circled using permanent pen marker, and the wound surface was covered with a TEGADERM™ (3M) sterile transparent dressing. After surgery, mice were given SR Buprenorphine (0.05 mg/kg) for post-operative analgesia. Then, mice were placed in a clean cage on the heating pad for 30 minutes to help the recovery process. Immediately after the recovery, mice were randomly grouped and treated with either with 4-AP (systemic, ip) or saline (control).
Functional analysis of the burn wound area was performed by placing a transparent sheet on the surface of the circled wound, and placing a ruler close to the burn wound to capture photographs of individual wounds on 0, 3, 7, 10, 14, 18, 21, and 26 days. The wound size of each individual mice was measured and compared to zero day wound diameter from the circled sheet. The percentage of wound closure was calculated using this formula: (area of original wound-area of the actual burn wound)/area of original burn wound×100.

[3] = 4-AP treated vs saline-treated mice

## Nc1ccncc1 [4-AP, 4-aminopyridine]
[1]; [3]
  collagen deposition in the healing wound (Masson's Trichrome): elevated collagen deposition
  thickness of newly formed epidermis within the healed wound (H&E): significantly thicker
[1]; not completed in saline-treated mice
  re-epithelialization: re-epithelialization was complete
[2]; by day 3, systemic 4-AP vs saline, P between 0.01 and 0.05
  acceleration of wound closure: significant increase in wound closure by day 3; also recorded: accelerated wound closure by day 3
[2]; by day 26, systemic 4-AP
  closed wounds: closed wounds by day 26
[2]; day 5, systemic (ip) 4-AP, saline treated animals showed 25% expansion of wound area
  reduced wound area (relative to initial wound area): 5%
[2]; systemic 4-AP vs saline
  protection from expansion of wound size (necrosis and apoptosis at zone of stasis): significant burn wound protection from expansion of wound; also recorded: significantly prevented expansion of wound size
[2]; systemic 4-AP vs systemic saline
  burn wound closure and tissue regeneration as compared to control animals: improved burn wound closure and tissue regeneration
